Reference: PMC10300102, “In vivo inhibition of nuclear ACE2 translocation protects against SARS-CoV-2 replication and lung damage through epigenetic imprinting” (Nature Communications, 2023)
Several values for one entry are separate records, joined by “and”; a condition that tells them apart may be missing. Equal entries are not always repeated. Where two headings read alike, the source gives them in different places. Where a SMILES comes first, the peptide text is derived from it. The star is where a group is joined. Myristoyl = CCCCCCCCCCCCCC(=O)*

Columns and labels:
[1] = test system: SARS-CoV-2; format: in vivo, golden Syrian hamsters
[2] = test system: CD14+ monocytes; format: cell-based, human
[3] = hamsters, escalating daily i.p. doses up to 100 mg/kg
[4] = Mouse tolerance studies; format: in vivo, C57BL/6 J mice; parameters: Mouse organ weight - i.v. treatment, Brain / Mouse organ weight - i.v. treatment, Heart / Mouse organ weight - i.v. treatment, Kidney / Mouse organ weight - i.v. treatment, Liver / Mouse organ weight - i.v. treatment, Lungs / Mouse organ weight - i.v. treatment, Spleen: unit not given here; details: for Mouse organ weight - i.v. treatment, Brain / Mouse organ weight - i.v. treatment, Heart / Mouse organ weight - i.v. treatment, Kidney / Mouse organ weight - i.v. treatment, Liver / Mouse organ weight - i.v. treatment, Lungs / Mouse organ weight - i.v. treatment, Spleen: S 1f, mean, N 5
Protocol: For NACE2i intraperitoneal (i.p.) studies, female C57BL/6 J mice (6-8 weeks, 3 per group) were treated with a single bolus dose of NACE2i at 3, 10, 30, or 100 mg/kg intraperitoneally for seven days. For NACE2i intravenous (i.v.) studies, male C57BL/6 J mice (6–8 weeks, 5 per group) were treated with daily bolus doses of either sodium chloride 0.9% vehicle or NACE2i at 3, 10, or 30 mg/kg intravenously for six days. For ACE2i studies, male C57BL/6 J mice (6 weeks, 5 per group) were treated with daily bolus doses of either saline vehicle or ACE2i at 10, 30, or 100 mg/kg intravenously or at 3, 10, and 30 mg/kg intranasally (i.n.) for six days. All treatments were administered on day 1, and all mice were observed and weighed daily prior to being euthanized for organ examination. All mice were purchased from the Animal Resources Centre (Canning Vale, Western Australia, Australia) and studies were carried out by Agilex Biolabs (St Lucia, Queensland, Australia). Animals were maintained in housing rooms under controlled environmental conditions: individually ventilated cages (IVCs) with a 12/12 light/dark cycle. The ambient temperature is set to 20–25 °C and relative humidity at 30-70% rH. The University of Queensland Animal Ethics Committee assessed and approved all studies (project code 2021/AE000659).

[5] = test system: SARS-CoV-2 spike protein; parameters: species or system golden Syrian hamsters; details: hamster, in vivo
[6] = i.p. single bolus 10 mg/kg, n=3
[7] = i.p. single bolus 30 mg/kg, n=3
[8] = i.p. single bolus 100 mg/kg, n=3
[9] = i.v. daily for 6 days 3 mg/kg, n=5
[10] = i.v. daily for 6 days 10 mg/kg, n=5
[11] = i.v. daily for 6 days 30 mg/kg, n=5

CCCCCCCCCCCCCC(=O)N[C@H](C(=O)NCC(=O)N[C@H](C(=O)N[C@@H](CCCNC(=N)N)C(=O)N[C@@H](CC(=O)O)C(=O)N[C@@H](CCCNC(=N)N)C(=O)N[C@@H](CCCCN)C(=O)N[C@@H](CCCCN)C(=O)N[C@@H](CCCCN)C(=O)N[C@@H](CC(N)=O)C(=O)N[C@@H](CCCCN)C(=O)N[C@@H](C)C(=O)N[C@@H](CCCNC(=N)N)C(=O)N[C@@H](CO)C(=O)O)[C@@H](C)CC)[C@@H](C)O [NACE2i] (Myristoyl-TGIRDRKKKNKARS-OH)
viral RNA in the lungs ([1]; hamster, in vivo): significant reductions
decrease in lung viral RNA normalized to vehicle controls ([1]; n=7, 15 mg/kg): 88%
decrease in lung viral RNA normalized to vehicle controls ([1]; n=8, 100 mg/kg): 96%
ACE2me expression in CD14+ monocytes [2]: induced
CD14+ACE2 NFI [2]: 581.219 and 687.373 and 742.928 and 1006.4 and 850.738 and 975.203 and 677.429 and 828.535
IL-6 expression in CD14+ monocytes [2]: significantly decreased
nuclear ACE2 expression in CD14+ monocytes [2]: significantly decreased
nuclear ACE2 expression in infected CD14+ monocytes [2]: reduced
body temperature [3]: minimal changes in body temperature
body weight [3]: without a decrease in body weight
discomfort [3]: no observable discomfort
Diarrhoea - Mild (number of animals) ([4]; IP route, 3 mg/kg, n = 3): 0
No abnormalities (number of animals) ([4]; IP route, 3 mg/kg, n = 3): 3
Palpebral Closure - Mild (number of animals) ([4]; IP route, 3 mg/kg, n = 3): 0
Piloerection - Mild (number of animals) ([4]; IP route, 3 mg/kg, n = 3): 0
Reduced Activity - Mild (number of animals) ([4]; IP route, 3 mg/kg, n = 3): 0
Reduced Activity - Moderate (number of animals) ([4]; IP route, 3 mg/kg, n = 3): 0
Right limb raised - Mild (number of animals) ([4]; IP route, 3 mg/kg, n = 3): 0
Diarrhoea - Mild (number of animals) ([4]; IP route, 10 mg/kg, n = 3): 0
No abnormalities (number of animals) ([4]; IP route, 10 mg/kg, n = 3): 3
Palpebral Closure - Mild (number of animals) ([4]; IP route, 10 mg/kg, n = 3): 0
Piloerection - Mild (number of animals) ([4]; IP route, 10 mg/kg, n = 3): 0
Reduced Activity - Mild (number of animals) ([4]; IP route, 10 mg/kg, n = 3): 0
Reduced Activity - Moderate (number of animals) ([4]; IP route, 10 mg/kg, n = 3): 0
Right limb raised - Mild (number of animals) ([4]; IP route, 10 mg/kg, n = 3): 0
Diarrhoea - Mild (number of animals) ([4]; IP route, 30 mg/kg, n = 3): 0
No abnormalities (number of animals) ([4]; IP route, 30 mg/kg, n = 3): 0
Palpebral Closure - Mild (number of animals) ([4]; IP route, 30 mg/kg, n = 3): 1
Piloerection - Mild (number of animals) ([4]; IP route, 30 mg/kg, n = 3): 0
Reduced Activity - Mild (number of animals) ([4]; IP route, 30 mg/kg, n = 3): 3
Reduced Activity - Moderate (number of animals) ([4]; IP route, 30 mg/kg, n = 3): 0
Right limb raised - Mild (number of animals) ([4]; IP route, 30 mg/kg, n = 3): 3
Diarrhoea - Mild (number of animals) ([4]; IP route, 100 mg/kg, n = 3): 1
No abnormalities (number of animals) ([4]; IP route, 100 mg/kg, n = 3): 0
Palpebral Closure - Mild (number of animals) ([4]; IP route, 100 mg/kg, n = 3): 0
Piloerection - Mild (number of animals) ([4]; IP route, 100 mg/kg, n = 3): 2
Reduced Activity - Mild (number of animals) ([4]; IP route, 100 mg/kg, n = 3): 2
Reduced Activity - Moderate (number of animals) ([4]; IP route, 100 mg/kg, n = 3): 2
Right limb raised - Mild (number of animals) ([4]; IP route, 100 mg/kg, n = 3): 0
Hunched Posture - Mild (number of animals) ([4]; IV route, 3 mg/kg, n = 5): 0
No abnormalities (number of animals) ([4]; IV route, 3 mg/kg, n = 5): 5
Palpebral Closure - Mild (number of animals) ([4]; IV route, 3 mg/kg, n = 5): 0
Piloerection - Mild (number of animals) ([4]; IV route, 3 mg/kg, n = 5): 0
Reduced Activity - Mild (number of animals) ([4]; IV route, 3 mg/kg, n = 5): 0
Reduced Activity - Moderate (number of animals) ([4]; IV route, 3 mg/kg, n = 5): 0
Tremors - Mild (number of animals) ([4]; IV route, 3 mg/kg, n = 5): 0
Hunched Posture - Mild (number of animals) ([4]; IV route, 10 mg/kg, n = 5): 0
No abnormalities (number of animals) ([4]; IV route, 10 mg/kg, n = 5): 5
Palpebral Closure - Mild (number of animals) ([4]; IV route, 10 mg/kg, n = 5): 0
Piloerection - Mild (number of animals) ([4]; IV route, 10 mg/kg, n = 5): 0
Reduced Activity - Mild (number of animals) ([4]; IV route, 10 mg/kg, n = 5): 0
Reduced Activity - Moderate (number of animals) ([4]; IV route, 10 mg/kg, n = 5): 0
Tremors - Mild (number of animals) ([4]; IV route, 10 mg/kg, n = 5): 0
Hunched Posture - Mild (number of animals) ([4]; IV route, 30 mg/kg, n = 5): 1
No abnormalities (number of animals) ([4]; IV route, 30 mg/kg, n = 5): 0
Palpebral Closure - Mild (number of animals) ([4]; IV route, 30 mg/kg, n = 5): 1
Piloerection - Mild (number of animals) ([4]; IV route, 30 mg/kg, n = 5): 0
Reduced Activity - Mild (number of animals) ([4]; IV route, 30 mg/kg, n = 5): 4
Reduced Activity - Moderate (number of animals) ([4]; IV route, 30 mg/kg, n = 5): 5
Tremors - Mild (number of animals) ([4]; IV route, 30 mg/kg, n = 5): 5
Mouse organ weight - i.v. treatment, Brain ([4]; i.v. 3 mg/kg): 452.46
Mouse organ weight - i.v. treatment, Heart ([4]; i.v. 3 mg/kg): 113.88
Mouse organ weight - i.v. treatment, Kidney ([4]; i.v. 3 mg/kg): 265.49
Mouse organ weight - i.v. treatment, Liver ([4]; i.v. 3 mg/kg): 1316.2
Mouse organ weight - i.v. treatment, Lungs ([4]; i.v. 3 mg/kg): 151.37
Mouse organ weight - i.v. treatment, Spleen ([4]; i.v. 3 mg/kg): 70.61
Mouse organ weight - i.v. treatment, Brain ([4]; i.v. 10 mg/kg): 451.76
Mouse organ weight - i.v. treatment, Heart ([4]; i.v. 10 mg/kg): 110.14
Mouse organ weight - i.v. treatment, Kidney ([4]; i.v. 10 mg/kg): 258.06
Mouse organ weight - i.v. treatment, Liver ([4]; i.v. 10 mg/kg): 1432.4
Mouse organ weight - i.v. treatment, Lungs ([4]; i.v. 10 mg/kg): 140.86
Mouse organ weight - i.v. treatment, Spleen ([4]; i.v. 10 mg/kg): 79.75
Mouse organ weight - i.v. treatment, Brain ([4]; i.v. 30 mg/kg): 422.35
Mouse organ weight - i.v. treatment, Heart ([4]; i.v. 30 mg/kg): 102.55
Mouse organ weight - i.v. treatment, Kidney ([4]; i.v. 30 mg/kg): 221.42
Mouse organ weight - i.v. treatment, Liver ([4]; i.v. 30 mg/kg): 1090.2
Mouse organ weight - i.v. treatment, Lungs ([4]; i.v. 30 mg/kg): 130.37
Mouse organ weight - i.v. treatment, Spleen ([4]; i.v. 30 mg/kg): 68.35
body weight ([4]; female C57BL/6 J mice, single i.p. bolus up to 100 mg/kg, seven days): without significant changes in body weight
Diarrhoea, mild (number of mice) ([4]; i.p. single bolus 3 mg/kg, n=3): 0
No abnormalities (number of mice) ([4]; i.p. single bolus 3 mg/kg, n=3): 3
Palpebral closure, mild (number of mice) ([4]; i.p. single bolus 3 mg/kg, n=3): 0
Piloerection, mild (number of mice) ([4]; i.p. single bolus 3 mg/kg, n=3): 0
Reduced activity, mild (number of mice) ([4]; i.p. single bolus 3 mg/kg, n=3): 0
Reduced activity, moderate (number of mice) ([4]; i.p. single bolus 3 mg/kg, n=3): 0
Right limb raised, mild (number of mice) ([4]; i.p. single bolus 3 mg/kg, n=3): 0
Diarrhoea, mild (number of mice) [4, 6]: 0
No abnormalities (number of mice) [4, 6]: 3
Palpebral closure, mild (number of mice) [4, 6]: 0
Piloerection, mild (number of mice) [4, 6]: 0
Reduced activity, mild (number of mice) [4, 6]: 0
Reduced activity, moderate (number of mice) [4, 6]: 0
Right limb raised, mild (number of mice) [4, 6]: 0
Diarrhoea, mild (number of mice) [4, 7]: 0
No abnormalities (number of mice) [4, 7]: 0
Palpebral closure, mild (number of mice) [4, 7]: 1
Piloerection, mild (number of mice) [4, 7]: 0
Reduced activity, mild (number of mice) [4, 7]: 3
Reduced activity, moderate (number of mice) [4, 7]: 0
Right limb raised, mild (number of mice) [4, 7]: 3
Diarrhoea, mild (number of mice) [4, 8]: 1
No abnormalities (number of mice) [4, 8]: 0
Palpebral closure, mild (number of mice) [4, 8]: 0
Piloerection, mild (number of mice) [4, 8]: 2
Reduced activity, mild (number of mice) [4, 8]: 2
Reduced activity, moderate (number of mice) [4, 8]: 2
Right limb raised, mild (number of mice) [4, 8]: 0
Hunched posture, mild (number of mice) [4, 9]: 0
No abnormalities (number of mice) [4, 9]: 5
Palpebral closure, mild (number of mice) [4, 9]: 0
Piloerection, mild (number of mice) [4, 9]: 0
Reduced activity, mild (number of mice) [4, 9]: 0
Reduced activity, moderate (number of mice) [4, 9]: 0
Tremors, mild (number of mice) [4, 9]: 0
Hunched posture, mild (number of mice) [4, 10]: 0
No abnormalities (number of mice) [4, 10]: 5
Palpebral closure, mild (number of mice) [4, 10]: 0
Piloerection, mild (number of mice) [4, 10]: 0
Reduced activity, mild (number of mice) [4, 10]: 0
Reduced activity, moderate (number of mice) [4, 10]: 0
Hunched posture, mild (number of mice) [4, 11]: 1
No abnormalities (number of mice) [4, 11]: 0
Palpebral closure, mild (number of mice) [4, 11]: 1
Piloerection, mild (number of mice) [4, 11]: 0
Reduced activity, mild (number of mice) [4, 11]: 4
Reduced activity, moderate (number of mice) [4, 11]: 5
Tremors, mild (number of mice) [4, 11]: 5
body or organ weight ([4]; male C57BL/6 J mice, daily i.v. bolus up to 30 mg/kg for six days): without significant changes in body or organ weight
SARS-CoV-2 spike protein signal intensity [5]: significantly reduced
population of SARS-CoV-2 spike protein-positive cells in bronchiolar epithelium [5]: significantly reduced
